Experimental data taken from ChEMBL document CHEMBL3046319, “PCR-RFLP detection of the E198A mutation conferring resistance to benzimidazoles in field isolates of Monilinia laxa from Greece” (Crop Prot, 2012).
Values after ≈ are worked out from the molar mass of the structure shown. Active and inactive are the calls of the source. The rule behind the calls is not given here.

What was measured:
Monilinia laxa [1] = test: Fungicidal activity against Monilinia laxa isolate MLAl8 assessed as reduction in mycelial growth rate at 25 degC after 4 days; type: functional, organism-based; conditions: isolate MLAl8, 96 h
Monilinia laxa [2] = test: Fungicidal activity against Monilinia laxa isolate MLK10 assessed as reduction in mycelial growth rate at 1 to 10 ug/ml at 31 degC after 5 days; type: functional, organism-based
Monilinia laxa [3] = test: Fungicidal activity against Monilinia laxa isolate MLK9 assessed as reduction in mycelial growth rate at 1 to 10 ug/ml at 31 degC after 5 days; type: functional, organism-based
Monilinia laxa [4] = test: Fungicidal activity against Monilinia laxa isolate MLK8 assessed as reduction in mycelial growth rate at 1 to 10 ug/ml at 31 degC after 5 days; type: functional, organism-based
Monilinia laxa [5] = test: Fungicidal activity against Monilinia laxa isolate MLK4 assessed as reduction in mycelial growth rate at 1 to 10 ug/ml at 31 degC after 5 days; type: functional, organism-based
Monilinia laxa [6] = test: Fungicidal activity against Monilinia laxa isolate MLG7 assessed as reduction in mycelial growth rate at 1 to 10 ug/ml at 31 degC after 5 days; type: functional, organism-based
Monilinia laxa [7] = test: Fungicidal activity against Monilinia laxa isolate MLG5 assessed as reduction in mycelial growth rate at 1 to 10 ug/ml at 31 degC after 5 days; type: functional, organism-based
Monilinia laxa [8] = test: Fungicidal activity against Monilinia laxa isolate MLG2 assessed as reduction in mycelial growth rate at 1 to 10 ug/ml at 31 degC after 5 days; type: functional, organism-based
Monilinia laxa [9] = test: Fungicidal activity against Monilinia laxa isolate MLC6 assessed as reduction in mycelial growth rate at 1 to 10 ug/ml at 31 degC after 5 days; type: functional, organism-based
Monilinia laxa [10] = test: Fungicidal activity against Monilinia laxa isolate MLA1 assessed as mean number of conidia produced in the colony at 25 degC after 12 days by haemocytometer; type: functional
Monilinia laxa [11] = test: Fungicidal activity against Monilinia laxa isolate MLK12 assessed as mean mycelial colony diameter at 25 degC after 4 days; type: functional
Monilinia laxa [12] = test: Fungicidal activity against Monilinia laxa isolate KX5 assessed as reduction in mycelial growth rate at 1 to 10 ug/ml at 28 degC after 8 days; type: functional, organism-based
Monilinia laxa [13] = test: Fungicidal activity against Monilinia laxa isolate MLNS1 assessed as reduction in mycelial growth rate at 1 to 10 ug/ml at 28 degC after 8 days; type: functional, organism-based
Monilinia laxa [14] = test: Fungicidal activity against Monilinia laxa isolate MLX1 assessed as reduction in mycelial growth rate at 1 to 10 ug/ml at 28 degC after 8 days; type: functional, organism-based
Monilinia laxa [15] = test: Fungicidal activity against Monilinia laxa isolate MLAl8 assessed as reduction in mycelial growth rate at 1 to 10 ug/ml at 28 degC after 8 days; type: functional, organism-based
Monilinia laxa [16] = test: Fungicidal activity against Monilinia laxa isolate MLP4 assessed as mycelial growth at 1 ug/ml at 25 degC after 4 days; type: functional
Monilinia laxa [17] = test: Fungicidal activity against Monilinia laxa isolate MLBO8 assessed as reduction in mycelial growth rate at 25 degC after 4 days; type: functional, organism-based; conditions: isolate MLBO8, 96 h
Monilinia laxa [18] = test: Fungicidal activity against Monilinia laxa isolate KX5 assessed as reduction in mycelial growth rate at 1 to 10 ug/ml at 25 to 28 degC; type: functional, organism-based
Monilinia laxa [19] = test: Fungicidal activity against Monilinia laxa isolate KX4 assessed as reduction in mycelial growth rate at 1 to 10 ug/ml at 25 to 28 degC; type: functional, organism-based
Monilinia laxa [20] = test: Fungicidal activity against Monilinia laxa isolate MLNS2 assessed as reduction in mycelial growth rate at 1 to 10 ug/ml at 25 to 28 degC; type: functional, organism-based
Monilinia laxa [21] = test: Fungicidal activity against Monilinia laxa isolate MLX3 assessed as reduction in mycelial growth rate at 1 to 10 ug/ml at 25 to 28 degC; type: functional, organism-based
Monilinia laxa [22] = test: Fungicidal activity against Monilinia laxa isolate MLX1 assessed as reduction in mycelial growth rate at 1 to 10 ug/ml at 25 to 28 degC; type: functional, organism-based
Monilinia laxa [23] = test: Fungicidal activity against Monilinia laxa isolate MLP7 assessed as reduction in mycelial growth rate at 1 to 10 ug/ml at 25 to 28 degC; type: functional, organism-based
Monilinia laxa [24] = test: Fungicidal activity against Monilinia laxa isolate MLBO6 assessed as reduction in mycelial growth rate at 1 to 10 ug/ml at 31 degC after 5 days; type: functional, organism-based
Monilinia laxa [25] = test: Fungicidal activity against Monilinia laxa isolate MLX5 assessed as mycelial growth at 1 ug/ml at 25 degC after 4 days; type: functional
Monilinia laxa [26] = test: Fungicidal activity against Monilinia laxa isolate MLP2 assessed as mycelial growth at 1 ug/ml at 25 degC after 4 days; type: functional
Monilinia laxa [27] = test: Fungicidal activity against Monilinia laxa isolate MLP7 assessed as reduction in mycelial growth rate at 1 to 10 ug/ml at 31 degC after 5 days; type: functional, organism-based
Monilinia laxa [28] = test: Fungicidal activity against Monilinia laxa isolate MLG1 assessed as mycelial growth at 1 ug/ml at 25 degC after 4 days; type: functional
Monilinia laxa [29] = test: Fungicidal activity against Monilinia laxa isolate MLK12 assessed as virulence in prune fruits assessed as virulence treated 10 min prior to mycelial inoculation at 24 degC after 10 days relative to isolate MLX1by pathogenicity bioassay; type: functional
Monilinia laxa [30] = test: Fungicidal activity against Monilinia laxa isolate MLBO2 assessed as virulence in prune fruits assessed as virulence treated 10 min prior to mycelial inoculation at 24 degC after 10 days relative to isolate MLX1by pathogenicity bioassay; type: functional
Monilinia laxa [31] = test: Fungicidal activity against Monilinia laxa isolate MLX1 assessed as mean number of conidia produced in the colony at 25 degC after 12 days by haemocytometer; type: functional
Monilinia laxa [32] = test: Fungicidal activity against Monilinia laxa isolate MLB1 assessed as reduction in mycelial growth rate at 1 to 10 ug/ml at 31 degC after 5 days; type: functional, organism-based
Monilinia laxa [33] = test: Fungicidal activity against Monilinia laxa isolate MLX5 assessed as reduction in mycelial growth rate at 1 to 10 ug/ml at 31 degC after 5 days; type: functional, organism-based
Monilinia laxa [34] = test: Fungicidal activity against Monilinia laxa isolate MLX4 assessed as reduction in mycelial growth rate at 1 to 10 ug/ml at 31 degC after 5 days; type: functional, organism-based
Monilinia laxa [35] = test: Fungicidal activity against Monilinia laxa isolate KX2 assessed as reduction in mycelial growth rate at 25 degC after 4 days; type: functional, organism-based; conditions: isolate KX2, 96 h
Monilinia laxa [36] = test: Fungicidal activity against Monilinia laxa isolate MLNS2 assessed as reduction in mycelial growth rate at 25 degC after 4 days; type: functional, organism-based; conditions: isolate MLNS2, 96 h
Monilinia laxa [37] = test: Fungicidal activity against Monilinia laxa isolate MLK12 assessed as reduction in mycelial growth rate at 25 degC after 4 days; type: functional, organism-based; conditions: isolate MLK12, 96 h
Monilinia laxa [38] = test: Fungicidal activity against Monilinia laxa isolate MLK10 assessed as reduction in mycelial growth rate at 25 degC after 4 days; type: functional, organism-based; conditions: isolate MLK10, 96 h
Monilinia laxa [39] = test: Fungicidal activity against Monilinia laxa isolate MLK7 assessed as reduction in mycelial growth rate at 25 degC after 4 days; type: functional, organism-based; conditions: isolate MLK7, 96 h
Monilinia laxa [40] = test: Fungicidal activity against Monilinia laxa isolate MLK2 assessed as reduction in mycelial growth rate at 25 degC after 4 days; type: functional, organism-based; conditions: isolate MLK2, 96 h
Monilinia laxa [41] = test: Fungicidal activity against Monilinia laxa isolate MLK1 assessed as reduction in mycelial growth rate at 25 degC after 4 days; type: functional, organism-based; conditions: isolate MLK1, 96 h

SMILES: COC(=O)Nc1nc2ccccc2[nH]1 [CARBENDAZIM]
- EC50 (Monilinia laxa [1]): > 50 µg/mL
- inhibition (Monilinia laxa [2]): Active
- inhibition (Monilinia laxa [3]): Active
- inhibition (Monilinia laxa [4]): Active
- inhibition (Monilinia laxa [5]): Active
- inhibition (Monilinia laxa [6]): Active
- inhibition (Monilinia laxa [7]): Active
- inhibition (Monilinia laxa [8]): Active
- inhibition (Monilinia laxa [9]): Active
- Activity (Monilinia laxa [10]): 5 /cm2
- Activity (Monilinia laxa [11]): 31 mm
- inhibition (Monilinia laxa [12]): inactive
- inhibition (Monilinia laxa [13]): inactive
- inhibition (Monilinia laxa [14]): inactive
- inhibition (Monilinia laxa [15]): inactive
- Activity (Monilinia laxa [16]): 94.44%
- EC50 (Monilinia laxa [17]): 0.06 µg/mL (≈ 0.314 µM)
- inhibition (Monilinia laxa [18]): inactive
- inhibition (Monilinia laxa [19]): inactive
- inhibition (Monilinia laxa [20]): inactive
- inhibition (Monilinia laxa [21]): inactive
- inhibition (Monilinia laxa [22]): inactive
- inhibition (Monilinia laxa [23]): inactive
- inhibition (Monilinia laxa [24]): Active
- Activity (Monilinia laxa [25]): 0%
- Activity (Monilinia laxa [26]): 0%
- inhibition (Monilinia laxa [27]): Active
- Activity (Monilinia laxa [28]): 0%
- Activity (Monilinia laxa [29]): 99.2%
- Activity (Monilinia laxa [30]): 95%
- Activity (Monilinia laxa [31]): 4 /cm2
- inhibition (Monilinia laxa [32]): Active
- inhibition (Monilinia laxa [33]): Active
- inhibition (Monilinia laxa [34]): Active
- EC50 (Monilinia laxa [35]): 0.08 µg/mL (≈ 0.418 µM)
- EC50 (Monilinia laxa [36]): > 50 µg/mL
- EC50 (Monilinia laxa [37]): > 50 µg/mL
- EC50 (Monilinia laxa [38]): 0.07 µg/mL (≈ 0.366 µM)
- EC50 (Monilinia laxa [39]): 0.08 µg/mL (≈ 0.418 µM)
- EC50 (Monilinia laxa [40]): > 50 µg/mL
- EC50 (Monilinia laxa [41]): > 50 µg/mL
